Test: Scavenging activity against DPPH
Type: functional

- IC50: 29.3 uM l-1
SMILES: CC1=NN(c2ccccc2)C(=O)C1 [EDARAVONE]

From ChEMBL document CHEMBL1136329, “A theoretical investigation on DPPH radical-scavenging mechanism of edaravone” (Bioorg Med Chem Lett, 2003)
